Experimental data from the supplement of paper PMC10307832.

Tests used:
Assay in all cases: relative viability (nuclei count vs DMSO), 5 days (fraction); higher = more cells survive
NCI-H1793 = system: NCI-H1793
How it was run: (§1)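 Medians of duplicate plates are given as relative viability. That measure is the nuclei count in treated wells divided by the count in vehicle wells. Counts were taken on 4× images of lung cancer cell lines in 1536-well plates, 5 days after pin-tool dosing the day after seeding with one drug alone or a fixed anchor-drug dose plus five library-drug doses (not always all listed) in √10 steps.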

SW 1573 = system: SW 1573
How it was run: as §1

NCI-H460 = system: NCI-H460
How it was run: as §1

LCLC-103H = system: LCLC-103H
How it was run: as §1

PC-3 [JPC-3] = system: PC-3 [JPC-3]
How it was run: as §1

HCC-44 = system: HCC-44
How it was run: as §1

NCI-H838 = system: NCI-H838
How it was run: as §1

LCLC-97TM1 = system: LCLC-97TM1
How it was run: as §1

NCI-H1650 = system: NCI-H1650
How it was run: as §1

NCI-H1944 = system: NCI-H1944
How it was run: as §1

A-427 = system: A-427
How it was run: as §1

NCI-H650 = system: NCI-H650
How it was run: as §1

H3255 = system: H3255
How it was run: as §1

LK-2 = system: LK-2
How it was run: as §1

NCI-H727 = system: NCI-H727
How it was run: as §1

201T = system: 201T
How it was run: as §1

SW 900 = system: SW 900
How it was run: as §1

COR-L23 = system: COR-L23
How it was run: as §1

PC-14 = system: PC-14
How it was run: as §1

LU99A = system: LU99A
How it was run: as §1

NCI-H2347 = system: NCI-H2347
How it was run: as §1

NCI-H23 = system: NCI-H23
How it was run: as §1

CC1(C)CCC(c2ccc(Cl)cc2)=C(CN2CCN(c3ccc(C(=O)NS(=O)(=O)c4ccc(N[C@H](CCN5CCOCC5)CSc5ccccc5)c(S(=O)(=O)C(F)(F)F)c4)cc3)CC2)C1 [Navitoclax] + CC(=O)c1c(C)c2cnc(Nc3ccc(N4CCNCC4)cn3)nc2n(C2CCCC2)c1=O [Palbociclib] (partner 0.5 µM)
relative viability (NCI-H1793; first compound 0.005 µM): 0.312
relative viability (NCI-H1793; first compound 0.01581 µM): 0.281
relative viability (NCI-H1793; first compound 0.1581 µM): 0.336
relative viability (NCI-H1793; first compound 0.5 µM): 0.295
relative viability (SW 1573; first compound 0.005 µM): 0.417
relative viability (SW 1573; first compound 0.01581 µM): 0.41
relative viability (SW 1573; first compound 0.05 µM): 0.448
relative viability (SW 1573; first compound 0.1581 µM): 0.399
relative viability (SW 1573; first compound 0.5 µM): 0.38
relative viability (NCI-H460; first compound 0.005 µM): 0.167
relative viability (NCI-H460; first compound 0.01581 µM): 0.159
relative viability (NCI-H460; first compound 0.05 µM): 0.0945
relative viability (NCI-H460; first compound 0.1581 µM): 0.217
relative viability (NCI-H460; first compound 0.5 µM): 0.13
relative viability (LCLC-103H; first compound 0.005 µM): 0.453
relative viability (LCLC-103H; first compound 0.01581 µM): 0.487
relative viability (LCLC-103H; first compound 0.05 µM): 0.486
relative viability (LCLC-103H; first compound 0.1581 µM): 0.443
relative viability (LCLC-103H; first compound 0.5 µM): 0.418
relative viability (PC-3 [JPC-3]; first compound 0.005 µM): 0.576
relative viability (PC-3 [JPC-3]; first compound 0.01581 µM): 0.575
relative viability (PC-3 [JPC-3]; first compound 0.05 µM): 0.545
relative viability (PC-3 [JPC-3]; first compound 0.1581 µM): 0.531
relative viability (PC-3 [JPC-3]; first compound 0.5 µM): 0.506
relative viability (HCC-44; first compound 0.005 µM): 0.968
relative viability (HCC-44; first compound 0.01581 µM): 0.919
relative viability (HCC-44; first compound 0.05 µM): 0.947
relative viability (HCC-44; first compound 0.1581 µM): 0.893
relative viability (HCC-44; first compound 0.5 µM): 0.956
relative viability (NCI-H838; first compound 0.005 µM): 0.193
relative viability (NCI-H838; first compound 0.01581 µM): 0.253
relative viability (NCI-H838; first compound 0.05 µM): 0.177
relative viability (NCI-H838; first compound 0.1581 µM): 0.209
relative viability (NCI-H838; first compound 0.5 µM): 0.224
relative viability (LCLC-97TM1; first compound 0.005 µM): 0.239
relative viability (LCLC-97TM1; first compound 0.01581 µM): 0.215
relative viability (LCLC-97TM1; first compound 0.05 µM): 0.166
relative viability (LCLC-97TM1; first compound 0.1581 µM): 0.203
relative viability (LCLC-97TM1; first compound 0.5 µM): 0.241
relative viability (NCI-H1650; first compound 0.005 µM): 0.385
relative viability (NCI-H1650; first compound 0.01581 µM): 0.456
relative viability (NCI-H1650; first compound 0.05 µM): 0.315
relative viability (NCI-H1650; first compound 0.1581 µM): 0.346
relative viability (NCI-H1650; first compound 0.5 µM): 0.316
relative viability (NCI-H1944; first compound 0.005 µM): 0.345
relative viability (NCI-H1944; first compound 0.01581 µM): 0.364
relative viability (NCI-H1944; first compound 0.1581 µM): 0.3
relative viability (NCI-H1944; first compound 0.5 µM): 0.341
relative viability (A-427; first compound 0.005 µM): 0.502
relative viability (A-427; first compound 0.01581 µM): 0.512
relative viability (A-427; first compound 0.05 µM): 0.516
relative viability (A-427; first compound 0.1581 µM): 0.514
relative viability (A-427; first compound 0.5 µM): 0.53
relative viability (NCI-H650; first compound 0.005 µM): 0.326
relative viability (NCI-H650; first compound 0.01581 µM): 0.35
relative viability (NCI-H650; first compound 0.05 µM): 0.315
relative viability (NCI-H650; first compound 0.1581 µM): 0.304
relative viability (NCI-H650; first compound 0.5 µM): 0.336
relative viability (H3255; first compound 0.005 µM): 0.304
relative viability (H3255; first compound 0.01581 µM): 0.329
relative viability (H3255; first compound 0.05 µM): 0.3
relative viability (H3255; first compound 0.1581 µM): 0.312
relative viability (H3255; first compound 0.5 µM): 0.316
relative viability (LK-2; first compound 0.005 µM): 0.588
relative viability (LK-2; first compound 0.01581 µM): 0.925
relative viability (LK-2; first compound 0.05 µM): 0.661
relative viability (LK-2; first compound 0.1581 µM): 0.502
relative viability (LK-2; first compound 0.5 µM): 0.758
relative viability (NCI-H727; first compound 0.005 µM): 0.625
relative viability (NCI-H727; first compound 0.01581 µM): 0.602
relative viability (NCI-H727; first compound 0.05 µM): 0.67
relative viability (NCI-H727; first compound 0.1581 µM): 0.584
relative viability (NCI-H727; first compound 0.5 µM): 0.527
relative viability (201T; first compound 0.005 µM): 0.342
relative viability (201T; first compound 0.01581 µM): 0.347
relative viability (201T; first compound 0.05 µM): 0.362
relative viability (201T; first compound 0.1581 µM): 0.365
relative viability (201T; first compound 0.5 µM): 0.355
relative viability (SW 900; first compound 0.005 µM): 0.565
relative viability (SW 900; first compound 0.01581 µM): 0.651
relative viability (SW 900; first compound 0.1581 µM): 0.55
relative viability (SW 900; first compound 0.5 µM): 0.518
relative viability (COR-L23; first compound 0.005 µM): 0.36
relative viability (COR-L23; first compound 0.01581 µM): 0.309
relative viability (COR-L23; first compound 0.05 µM): 0.28
relative viability (COR-L23; first compound 0.1581 µM): 0.331
relative viability (COR-L23; first compound 0.5 µM): 0.278
relative viability (PC-14; first compound 0.005 µM): 0.537
relative viability (PC-14; first compound 0.01581 µM): 0.466
relative viability (PC-14; first compound 0.05 µM): 0.607
relative viability (PC-14; first compound 0.1581 µM): 0.528
relative viability (PC-14; first compound 0.5 µM): 0.509
relative viability (LU99A; first compound 0.005 µM): 0.392
relative viability (LU99A; first compound 0.01581 µM): 0.433
relative viability (LU99A; first compound 0.1581 µM): 0.437
relative viability (LU99A; first compound 0.5 µM): 0.48
relative viability (NCI-H2347; first compound 0.005 µM): 0.468
relative viability (NCI-H2347; first compound 0.01581 µM): 0.48
relative viability (NCI-H2347; first compound 0.05 µM): 0.396
relative viability (NCI-H2347; first compound 0.1581 µM): 0.439
relative viability (NCI-H2347; first compound 0.5 µM): 0.377
relative viability (NCI-H23; first compound 0.005 µM): 0.518
relative viability (NCI-H23; first compound 0.01581 µM): 0.53
relative viability (NCI-H23; first compound 0.05 µM): 0.496
relative viability (NCI-H23; first compound 0.1581 µM): 0.446
relative viability (NCI-H23; first compound 0.5 µM): 0.534
